According to ChEMBL document CHEMBL1156326, “Novel N-substituted benzimidazole CXCR4 antagonists as potential anti-HIV agents” (Bioorg Med Chem Lett, 2010):

Experiments:
[1] = tested on: Human immunodeficiency virus 1; assay: Antiviral activity against HIV1 3B infected in human HOS cells expressing human CXCR4/CCR5/CD4 and HIV-LTR-luciferase; type: functional, organism-based; conditions: Human immunodeficiency virus 1, 3B
[2] = Cytotoxicity against human HOS cells; type: cell-based
[3] = tested on: Human immunodeficiency virus 1; assay: Antiviral activity against HIV1 3B infected in human HOS cells expressing human CXCR4/CCR5/CD4 and HIV-LTR-luciferase assessed as change in concentration at which 50 % efficacy is observed in presence of human serum albumin and alpha acid glycoprotein; type: functional
[4] = target: C-X-C chemokine receptor type 4 (Homo sapiens, UniProt P61073); assay: Inhibition of human CXCR4
[5] = Half life in dog at 1 mg/kg, iv; type: ADME, organism-based, Canis lupus familiaris; parameters: dose 1 mg/kg, route intravenous; conditions: in vivo
[6] = Oral bioavailability in rat at 3 mg/kg; type: ADME, organism-based; conditions: in vivo
[7] = target: Voltage-gated inwardly rectifying potassium channel KCNH2 (Homo sapiens, UniProt Q12809); assay: Binding affinity to human ERG
[8] = Clearance in rat at 1 mg/kg, iv; type: ADME, organism-based; parameters: dose 1 mg/kg, route intravenous; conditions: in vivo
[9] = Clearance in dog at 1 mg/kg, iv; type: ADME, organism-based, Canis lupus familiaris; parameters: dose 1 mg/kg, route intravenous; conditions: in vivo
[10] = Half life in rat at 1 mg/kg, iv; type: ADME, organism-based; parameters: dose 1 mg/kg, route intravenous; conditions: in vivo
[11] = Oral bioavailability in dog at 3 mg/kg; type: ADME, organism-based, Canis lupus familiaris; conditions: in vivo

Sequence of C-X-C chemokine receptor type 4 (P61073 whole entry): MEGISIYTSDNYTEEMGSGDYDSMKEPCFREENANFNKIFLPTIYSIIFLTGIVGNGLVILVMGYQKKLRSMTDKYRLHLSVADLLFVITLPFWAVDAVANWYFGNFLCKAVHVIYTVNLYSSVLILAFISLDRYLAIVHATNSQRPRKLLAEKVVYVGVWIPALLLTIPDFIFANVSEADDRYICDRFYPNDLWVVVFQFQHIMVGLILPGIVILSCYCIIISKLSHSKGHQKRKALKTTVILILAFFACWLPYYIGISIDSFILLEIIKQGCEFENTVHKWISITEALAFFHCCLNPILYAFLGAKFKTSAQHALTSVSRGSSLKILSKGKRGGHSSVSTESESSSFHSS
Sequence of Voltage-gated inwardly rectifying potassium channel KCNH2 (Q12809 whole entry): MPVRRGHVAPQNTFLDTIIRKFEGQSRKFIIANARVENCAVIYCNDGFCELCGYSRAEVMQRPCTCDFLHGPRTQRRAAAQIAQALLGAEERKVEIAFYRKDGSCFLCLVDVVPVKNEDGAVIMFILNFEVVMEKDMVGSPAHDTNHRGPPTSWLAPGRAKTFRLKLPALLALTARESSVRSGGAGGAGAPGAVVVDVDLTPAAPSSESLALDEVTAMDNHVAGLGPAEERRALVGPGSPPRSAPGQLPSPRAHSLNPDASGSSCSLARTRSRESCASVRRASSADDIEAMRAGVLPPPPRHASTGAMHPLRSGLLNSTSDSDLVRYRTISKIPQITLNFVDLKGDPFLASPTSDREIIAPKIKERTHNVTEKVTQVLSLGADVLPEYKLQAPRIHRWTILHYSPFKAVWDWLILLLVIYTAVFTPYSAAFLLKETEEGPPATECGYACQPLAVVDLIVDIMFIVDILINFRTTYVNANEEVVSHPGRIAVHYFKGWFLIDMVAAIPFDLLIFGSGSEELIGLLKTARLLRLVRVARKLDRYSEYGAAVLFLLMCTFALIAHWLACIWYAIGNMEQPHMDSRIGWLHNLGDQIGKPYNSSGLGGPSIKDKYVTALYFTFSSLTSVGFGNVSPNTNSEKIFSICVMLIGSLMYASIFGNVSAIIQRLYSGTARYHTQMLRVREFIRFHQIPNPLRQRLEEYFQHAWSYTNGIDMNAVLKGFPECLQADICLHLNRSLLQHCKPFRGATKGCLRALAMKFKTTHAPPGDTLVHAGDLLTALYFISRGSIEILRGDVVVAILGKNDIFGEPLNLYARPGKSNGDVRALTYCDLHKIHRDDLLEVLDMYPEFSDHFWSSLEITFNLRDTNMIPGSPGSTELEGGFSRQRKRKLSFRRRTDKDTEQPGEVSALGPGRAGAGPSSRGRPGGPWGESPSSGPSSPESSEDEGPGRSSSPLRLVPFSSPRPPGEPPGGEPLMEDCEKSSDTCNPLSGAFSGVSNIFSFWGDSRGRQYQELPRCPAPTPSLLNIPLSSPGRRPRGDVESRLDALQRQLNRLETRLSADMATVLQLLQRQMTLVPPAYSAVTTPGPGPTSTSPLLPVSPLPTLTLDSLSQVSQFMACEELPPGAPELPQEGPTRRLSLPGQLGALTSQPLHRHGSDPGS

IC50 [1]	Structure (SMILES)	CC50 [2]	fold change (FC) [3]	further results
57 nM	CN1CCC(Cn2c(CN(C)C3CCCc4cccnc43)nc3ccccc32)C1 (stereo not drawn)	15000 nM	–	–
66 nM	CN1CC(Cn2c(CN(C)C3CCCc4cccnc43)nc3ccccc32)C1 (stereo not drawn)	14000 nM	–	–
33 nM	CN(Cc1nc2ccccc2n1C[C@H]1CCCN(Cc2cccnc2)C1)[C@H]1CCCc2cccnc21	2500 nM	8.7	–
51 nM	CN(Cc1nc2ccccc2n1CC1CCCNC1)C1CCCc2cccnc21 (stereo not drawn)	15000 nM	–	–
24 nM	CN(Cc1nc2ccccc2n1CC1CCNC1)C1CCCc2cccnc21 (stereo not drawn)	7700 nM	–	–
99 nM	CN(Cc1nc2ccccc2n1C1CCNCC1)C1CCCc2cccnc21 (stereo not drawn)	13000 nM	–	–
6 nM	CN1CCC[C@H](Cn2c(CN(C)[C@H]3CCCc4cccnc43)nc3ccccc32)C1	3600 nM	10	–
21 nM	CN1CCC[C@@H](Cn2c(CN(C)[C@H]3CCCc4cccnc43)nc3ccccc32)C1	3500 nM	–	–
210 nM	CN1CCC[C@H](Cn2c(CN(C)[C@@H]3CCCc4cccnc43)nc3ccccc32)C1	3600 nM	–	–
8.1 nM	CC(C)CN1CCC[C@H](Cn2c(CN(C)[C@H]3CCCc4cccnc43)nc3ccccc32)C1	> 2000 nM	6.2	–
500 nM	CN1CCC[C@@H](Cn2c(CN(C)[C@@H]3CCCc4cccnc43)nc3ccccc32)C1	2800 nM	–	–
2 nM	CC(C)N1CCC[C@H](Cn2c(CN(C)[C@H]3CCCc4cccnc43)nc3ccccc32)C1	2100 nM	2	half-life [5]: 11 h; bioavailability [6]: 11%; Activity [7]: Active; clearance [8]: 8.5 mL/min/kg; clearance [9]: 9.4 mL/min/kg; half-life [10]: 5.8 h; IC50 [4]: 4.5 nM; bioavailability [11]: 22%

More lines, now with the values behind:

Structure (SMILES)	IC50 [1]	CC50 [2]	fold change (FC) [3]	further results
CN(Cc1nc2ccccc2n1CC1CNC1)C1CCCc2cccnc21 (stereo not drawn)	84 nM	15000 nM	–	–
CN1CCCC(Cn2c(CN(C)C3CCCc4cccnc43)nc3ccccc32)C1 (stereo not drawn)	19 nM	3000 nM	–	–
CC(C)CCN1CCC[C@H](Cn2c(CN(C)[C@H]3CCCc4cccnc43)nc3ccccc32)C1	15 nM	2300 nM	5.1	–
CN(Cc1nc2ccccc2n1CCC1CCCCN1)C1CCCc2cccnc21 (stereo not drawn)	64 nM	8300 nM	–	–
CN1CCCCC1CCn1c(CN(C)C2CCCc3cccnc32)nc2ccccc21 (stereo not drawn)	33 nM	4900 nM	–	–
CN1CCC(n2c(CN(C)C3CCCc4cccnc43)nc3ccccc32)CC1 (stereo not drawn)	95 nM	16000 nM	–	IC50 [4]: 76 nM
CN(Cc1nc2ccccc2n1C[C@H]1CCCNC1)[C@H]1CCCc2cccnc21	8 nM	3500 nM	1.2	–
CN(Cc1nc2ccccc2n1C[C@H]1CCCN(CCO)C1)[C@H]1CCCc2cccnc21	12 nM	2500 nM	9.1	–
CN(Cc1nc2ccccc2n1CCCN)C1CCCc2cccnc21 (stereo not drawn)	–	9600 nM	–	IC50 [4]: 47 nM
